Results from PMC11649397, “The study of halogen effect on the reactivity of the serine-targeting covalent warheads” (Frontiers in Chemistry, 2024).
“And” between values parts separate entries of the source, which are not always exact repeats. Identical values can stand only once. “Also recorded” adds a separate entry of the source. Like-named read-outs stand apart in the source and are kept apart here.

Tests used:
hCES1A [1] = molecular target: T1, hCES1A (Homo sapiens, UniProt P23141); assay: Inhibition assay on hCES1A (bioluminogenic substrate NLMe); type: biochemical; conditions: for selective inhibitory activity on hCES1A: 10 μM, selectivity screening; for anti-hCES1A effect in screening of the covalent fragment library: high-throughput screening, Figure 1; for IC50: mean ± SD, n = 3
T1 sequence (P23141 18-567): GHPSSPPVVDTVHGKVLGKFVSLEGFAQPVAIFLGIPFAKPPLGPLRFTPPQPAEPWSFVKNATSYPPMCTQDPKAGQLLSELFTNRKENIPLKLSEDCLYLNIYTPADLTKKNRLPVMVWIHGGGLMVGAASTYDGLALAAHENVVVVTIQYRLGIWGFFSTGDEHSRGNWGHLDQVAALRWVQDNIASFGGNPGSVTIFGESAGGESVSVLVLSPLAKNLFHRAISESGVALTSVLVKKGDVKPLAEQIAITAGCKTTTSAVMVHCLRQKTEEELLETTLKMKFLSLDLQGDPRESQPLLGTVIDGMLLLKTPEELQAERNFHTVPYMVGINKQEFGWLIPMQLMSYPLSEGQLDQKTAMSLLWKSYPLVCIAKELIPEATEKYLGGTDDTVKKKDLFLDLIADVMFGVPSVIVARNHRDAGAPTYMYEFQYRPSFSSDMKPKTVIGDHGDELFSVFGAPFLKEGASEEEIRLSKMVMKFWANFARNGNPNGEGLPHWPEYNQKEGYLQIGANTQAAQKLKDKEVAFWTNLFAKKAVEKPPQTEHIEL
Experimental: In this study, a known bioluminogenic probe substrate NLMe was used for human carboxylesterase 1 (hCES1A) inhibition assays. ([Wang et al., 2020]). In brief, the incubation mixture (0.1 mL) consisted of 0.1 M buffer PBS (PH 6.5), hCES1A (0.1 μg/mL, final concentration) and each test compound. […] After 20 min incubation, equal volume of LDR was added to stop reaction. The luminescence signals were monitored in the microplate reader (SpectraMax iD3Molecular Devices, Austria). […]
The household library of covalent fragments including D and F was from Organic Chemistry […]
Fig. S1. Partial fragment molecules of a household library targeting to serine. […]
Inhibition assay on hCES1A
In this study, a known bioluminogenic probe substrate NLMe was used for human carboxylesterase 1 (hCES1A) inhibition assays. 2 In brief, the incubation mixture (0.1 mL) consisted of 0.1 M buffer PBS (PH 6.5), hCES1A (0.1 μg/mL, final concentration) and each test compound. […]
After 20 min incubation, equal volume of LDR was added to stop reaction.

hCES1A [2] = molecular target: T1, hCES1A; assay: Co-crystallography with hCES1A; type: binding; conditions: 1:5 molar ratio
Experimental: Purified hCES1A incubated with F-3 and F-4 at 1:5 M ratio for 1 h at 18°C. Crystallisation screening was performed using commercially available kit sets using sitting drop vapor diffusion at 16°C. Both diffraction-quality crystals were obtained from the condition containing 14.4% peg8000 (w/v), 0.1M MES 6.4, 0.3M CaAc and 20% glycerol. Crystals were flash cooled in liquid nitrogen after cryoprotection in 25% glycerin. Date was collected on 02U1 at Shanghai Synchrotron Radiation Facility (SSRF). Data images were processed using program HKL2000. ([Otwinowski and Minor, 1997]). Crystal structures were solved using molecular replacement with the Phenix software suite using unbound hces1a (Protein Data Bank [PDB] accession number 1MX1 as the search model. Structure refinement was performed using Phenix. ([Adams et al., 2010]). The program COOT was used for manual rebuilding. ([Emsley and Cowtan, 2004]). Molecular graphics images were generated using CCP4MG. ([McNicholas et al., 2011]). […]
fluorogenic probe. 4 Briefly, the incubation mixtures (0.1 mL) contained Tris-HCl buffer, hPL solution (0.25 μg/mL, final concentration), porcine bile salt (0.1 mg/mL, final concentration) and each inhibitor (with different concentrations). […] The fluorescent signals of hydrolytic product were quantified by using the microplate reader (Spectra Max M4, Austria), with the wavelength of 600 nm and 660 nm for excitation and emission, respectively. […]
OPTS, a known fluorogenic probe, was used as the substrate to assess the residual activities of Notum in the presence of each tested compound. […] After preincubated at 37 °C for 1 min, OPTS was added to initiate the hydrolytic reaction and the multi-mode microplate reader (SpectraMax iD3, Molecular Devices, Austria) was used to analyze the florescence signals of the […]
The F-3, F-4, F-10-bound peptides was analysed using the nanoLC-MS/MS system, respectively.6 The purified hCES1A (150 μg, final content) was co-incubated with the small molecule inhibitor F-3/ F-4/ F-10 (100 μM, final concentration) at 4 °C and 25 °C, respectively, for 4h. […]

## O=S(=O)(F)c1ccc(Br)cc1 [D, 4-bromobenzenesulfonyl fluoride]
hCES1A [1]
  selective inhibitory activity on hCES1A: decent selective inhibitory activities
  anti-hCES1A effect in screening of the covalent fragment library: potent anti-hCES1A effects; also recorded: strong and selective inhibition against hCES1A
hCES1A [1]; hCES1A vs hCES2A
  difference between IC50 values of hCES1A and hCES2A: no statistically significant difference

## O=C(c1ccccc1)C(F)(F)F [F, 2,2,2-trifluoroacetophenone]
hCES1A [1]
  selective inhibitory activity on hCES1A: decent selective inhibitory activities
  anti-hCES1A effect in screening of the covalent fragment library: potent anti-hCES1A effects; also recorded: strong and selective inhibition against hCES1A
hCES1A [1]; 3 min incubation, read-out: hCES1A IC50 3 min
  IC50: 24.1 ± 1 nM
hCES1A [1]; 3 min vs 33 min incubation
  time-dependent inhibition against hCES1A: weak time-dependent inhibition
hCES1A [1]; 33 min incubation, read-out: hCES1A IC50 33 min
  IC50: 11 nM and 11.1 nM
hCES1A [1]; ratio of IC50 at 3 min to IC50 at 33 min
  hCES1A IC50 Fold Increase: 2 and 2.2
hCES1A [2]
  covalent binding mode at the catalytic triad (Ser221) in co-crystal: failed to result in similar covalent interactions
